# Assays:
# BUB1 in MDA-MB-468 = experiment: BUB1 levels after 72 hours treatment; assay type: cell-based; details: MDA-MB-468 (TNBC)
# Experimental: (§1) The effects on the different treatment conditions on BUB 1 levels and PARP cleavage were also assessed. For both MNA-MB-231 cells, Compound 1 alone or with HCQ or SBI decreased BUB1 levels and cleaved PARP with […] decreases in cell viability observed for all treatments except Compound 1+SBI in MMA-MB-231 cells. The effects of Compound 1 with or without autophagy inhibitors was less pronounced in HCC-1937 cells.
# BUB1 in MDA-MB-231 = experiment: BUB1 levels after 72 hours treatment; assay type: cell-based; details: MDA-MB-231 (TNBC)
# Experimental: as §1
# MDA-MB-231 cells = experiment: Transmission electron microscopy of cellular morphology; assay type: cell-based; details: 5 μM, 24 hours, compared to DMSO
# Experimental: The effect of Compound 1 (5 μM) treatment for 24 hours on cellular morphology was assessed using transmission electron microscopy (TEM) and compared to DMSO. FIG. 27 and FIG. 28 show representative TEM images of MDA-MB-231 cells treated with DMSO or Compound 1.
# LIMK1 = molecular target: T1, LIMK1 (Homo sapiens, UniProt P53667); experiment: CETSA-MS, MDA-MB-231 cell lysates; assay type: binding; details: 2 μM and 20 μM
# T1 construct: endogenous in cells; host or cells: MDA-MB-231
# Experimental: (§2) Following treatment, cell lysates were thermally treated in a thermal gradient profile across a temperature range. Following the thermal shift, cell lysates were spun by centrifuge to pellet aggregate protein and the supernatant withdrawn. The supernatant was then denatured in buffer and heated to denature, reduce, and alkylate the supernatant proteins. Following heating and cooling to room temperature, cold acetone was added to the supernatant samples and proteins precipitated.
# (§3) The intact cell protein samples and lysate protein samples were then digested and labeled for mass spectrometry analysis according to the manufacturer's recommended protocols. Digested and labeled protein samples were analyzed by mass spectrometry proteomic analysis and the resulting protein targets were analyzed and plotted.
# CPQ = molecular target: T2, CPQ (Homo sapiens, UniProt Q9Y646); experiment: CETSA-MS, MDA-MB-231 cell lysates; assay type: binding; details: 2 μM and 20 μM
# T2 construct: endogenous in cells; host or cells: MDA-MB-231
# Experimental: as §2, §3
# EPHA2 = molecular target: T3, EPHA2 (Homo sapiens, UniProt P29317); experiment: CETSA-MS, MDA-MB-231 cell lysates; assay type: binding; details: 2 μM and 20 μM
# T3 construct: endogenous in cells; host or cells: MDA-MB-231
# Experimental: as §2, §3
# DGCR6 = molecular target: T4, DGCR6 (Homo sapiens, UniProt Q14129); experiment: CETSA-MS, MDA-MB-231 cell lysates; assay type: binding; details: 2 μM and 20 μM
# T4 construct: endogenous in cells; host or cells: MDA-MB-231
# T4 sequence (Q14129 whole entry): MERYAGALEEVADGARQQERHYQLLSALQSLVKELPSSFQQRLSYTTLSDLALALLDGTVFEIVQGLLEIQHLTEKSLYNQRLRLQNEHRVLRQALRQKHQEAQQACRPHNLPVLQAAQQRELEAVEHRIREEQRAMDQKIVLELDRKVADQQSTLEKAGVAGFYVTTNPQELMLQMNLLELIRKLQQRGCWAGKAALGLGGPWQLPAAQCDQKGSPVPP
# Experimental: as §2, §3
# ZCRB1 = molecular target: T5, ZCRB1 (Homo sapiens, UniProt Q8TBF4); experiment: CETSA-MS, MDA-MB-231 cell lysates; assay type: binding; details: 2 μM and 20 μM
# T5 construct: endogenous in cells; host or cells: MDA-MB-231
# T5 sequence (Q8TBF4 whole entry): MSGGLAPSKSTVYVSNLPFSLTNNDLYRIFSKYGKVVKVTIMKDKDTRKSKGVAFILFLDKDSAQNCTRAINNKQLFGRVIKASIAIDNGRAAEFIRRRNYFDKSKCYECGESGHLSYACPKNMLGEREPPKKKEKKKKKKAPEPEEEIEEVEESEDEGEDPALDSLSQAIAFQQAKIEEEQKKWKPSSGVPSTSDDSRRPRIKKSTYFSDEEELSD
# Experimental: as §2, §3
# GSK3A = molecular target: T6, GSK3A (Homo sapiens, UniProt P49840); experiment: CETSA-MS, MDA-MB-231 cell lysates; assay type: binding; details: 2 μM and 20 μM
# T6 construct: endogenous in cells; host or cells: MDA-MB-231
# T6 sequence (P49840 whole entry): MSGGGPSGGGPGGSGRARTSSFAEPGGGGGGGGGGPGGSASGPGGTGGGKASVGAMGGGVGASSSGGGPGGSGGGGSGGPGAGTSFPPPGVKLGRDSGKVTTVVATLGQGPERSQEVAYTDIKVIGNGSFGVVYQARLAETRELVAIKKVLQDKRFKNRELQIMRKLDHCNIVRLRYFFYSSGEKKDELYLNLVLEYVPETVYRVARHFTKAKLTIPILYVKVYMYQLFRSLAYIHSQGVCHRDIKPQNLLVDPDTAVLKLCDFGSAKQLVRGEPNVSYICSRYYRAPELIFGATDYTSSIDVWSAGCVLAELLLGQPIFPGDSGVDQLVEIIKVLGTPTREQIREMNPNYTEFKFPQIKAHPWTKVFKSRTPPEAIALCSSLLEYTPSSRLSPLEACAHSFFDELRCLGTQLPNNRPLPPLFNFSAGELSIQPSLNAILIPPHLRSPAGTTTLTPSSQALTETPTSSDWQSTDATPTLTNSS
# Experimental: as §2, §3
# BMP2K = molecular target: T7, BMP2K (Homo sapiens, UniProt Q9NSY1); experiment: CETSA-MS, MDA-MB-231 cell lysates; assay type: binding; details: 2 μM and 20 μM
# T7 construct: endogenous in cells; host or cells: MDA-MB-231
# T7 sequence (Q9NSY1 whole entry): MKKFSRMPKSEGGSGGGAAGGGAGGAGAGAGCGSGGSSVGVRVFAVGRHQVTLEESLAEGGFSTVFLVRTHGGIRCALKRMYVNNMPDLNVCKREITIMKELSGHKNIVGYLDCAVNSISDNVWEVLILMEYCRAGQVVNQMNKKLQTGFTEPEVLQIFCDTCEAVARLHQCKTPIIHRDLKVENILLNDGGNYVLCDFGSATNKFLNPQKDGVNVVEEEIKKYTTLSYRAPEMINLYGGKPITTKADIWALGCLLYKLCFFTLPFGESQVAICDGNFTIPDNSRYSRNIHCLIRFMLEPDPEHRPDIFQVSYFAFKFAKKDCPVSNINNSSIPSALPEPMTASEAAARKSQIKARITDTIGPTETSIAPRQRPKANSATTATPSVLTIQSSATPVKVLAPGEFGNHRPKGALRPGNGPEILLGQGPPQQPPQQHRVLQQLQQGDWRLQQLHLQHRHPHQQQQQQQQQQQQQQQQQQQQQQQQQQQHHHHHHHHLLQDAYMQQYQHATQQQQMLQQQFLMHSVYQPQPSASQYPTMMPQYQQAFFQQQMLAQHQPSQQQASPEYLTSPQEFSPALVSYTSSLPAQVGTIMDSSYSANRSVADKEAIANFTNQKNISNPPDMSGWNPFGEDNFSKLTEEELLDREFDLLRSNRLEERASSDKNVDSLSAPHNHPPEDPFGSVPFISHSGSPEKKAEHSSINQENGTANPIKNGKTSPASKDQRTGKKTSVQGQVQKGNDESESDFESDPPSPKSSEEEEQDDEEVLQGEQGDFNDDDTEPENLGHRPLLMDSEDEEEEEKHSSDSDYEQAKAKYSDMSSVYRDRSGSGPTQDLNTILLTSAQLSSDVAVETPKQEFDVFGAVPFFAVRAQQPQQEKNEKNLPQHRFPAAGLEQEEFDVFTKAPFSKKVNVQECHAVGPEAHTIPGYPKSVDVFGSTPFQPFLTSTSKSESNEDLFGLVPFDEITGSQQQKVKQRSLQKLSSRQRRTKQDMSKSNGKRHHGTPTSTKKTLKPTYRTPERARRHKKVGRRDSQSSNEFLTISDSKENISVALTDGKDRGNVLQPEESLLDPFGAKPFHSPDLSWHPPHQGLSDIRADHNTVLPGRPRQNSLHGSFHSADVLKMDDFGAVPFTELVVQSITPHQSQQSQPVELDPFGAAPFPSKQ
# Experimental: as §2, §3
# BUB1 = BUB1 (Homo sapiens, UniProt O43683); experiment: CETSA-MS, MDA-MB-231 cell lysates; assay type: binding; details: 2 μM and 20 μM
# Experimental: as §2, §3
# CDC42BPB = molecular target: T8, CDC42BPB (Homo sapiens, UniProt Q9Y5S2); experiment: CETSA-MS, MDA-MB-231 cell lysates; assay type: binding; details: 2 μM and 20 μM
# T8 construct: endogenous in cells; host or cells: MDA-MB-231
# T8 sequence (Q9Y5S2 whole entry): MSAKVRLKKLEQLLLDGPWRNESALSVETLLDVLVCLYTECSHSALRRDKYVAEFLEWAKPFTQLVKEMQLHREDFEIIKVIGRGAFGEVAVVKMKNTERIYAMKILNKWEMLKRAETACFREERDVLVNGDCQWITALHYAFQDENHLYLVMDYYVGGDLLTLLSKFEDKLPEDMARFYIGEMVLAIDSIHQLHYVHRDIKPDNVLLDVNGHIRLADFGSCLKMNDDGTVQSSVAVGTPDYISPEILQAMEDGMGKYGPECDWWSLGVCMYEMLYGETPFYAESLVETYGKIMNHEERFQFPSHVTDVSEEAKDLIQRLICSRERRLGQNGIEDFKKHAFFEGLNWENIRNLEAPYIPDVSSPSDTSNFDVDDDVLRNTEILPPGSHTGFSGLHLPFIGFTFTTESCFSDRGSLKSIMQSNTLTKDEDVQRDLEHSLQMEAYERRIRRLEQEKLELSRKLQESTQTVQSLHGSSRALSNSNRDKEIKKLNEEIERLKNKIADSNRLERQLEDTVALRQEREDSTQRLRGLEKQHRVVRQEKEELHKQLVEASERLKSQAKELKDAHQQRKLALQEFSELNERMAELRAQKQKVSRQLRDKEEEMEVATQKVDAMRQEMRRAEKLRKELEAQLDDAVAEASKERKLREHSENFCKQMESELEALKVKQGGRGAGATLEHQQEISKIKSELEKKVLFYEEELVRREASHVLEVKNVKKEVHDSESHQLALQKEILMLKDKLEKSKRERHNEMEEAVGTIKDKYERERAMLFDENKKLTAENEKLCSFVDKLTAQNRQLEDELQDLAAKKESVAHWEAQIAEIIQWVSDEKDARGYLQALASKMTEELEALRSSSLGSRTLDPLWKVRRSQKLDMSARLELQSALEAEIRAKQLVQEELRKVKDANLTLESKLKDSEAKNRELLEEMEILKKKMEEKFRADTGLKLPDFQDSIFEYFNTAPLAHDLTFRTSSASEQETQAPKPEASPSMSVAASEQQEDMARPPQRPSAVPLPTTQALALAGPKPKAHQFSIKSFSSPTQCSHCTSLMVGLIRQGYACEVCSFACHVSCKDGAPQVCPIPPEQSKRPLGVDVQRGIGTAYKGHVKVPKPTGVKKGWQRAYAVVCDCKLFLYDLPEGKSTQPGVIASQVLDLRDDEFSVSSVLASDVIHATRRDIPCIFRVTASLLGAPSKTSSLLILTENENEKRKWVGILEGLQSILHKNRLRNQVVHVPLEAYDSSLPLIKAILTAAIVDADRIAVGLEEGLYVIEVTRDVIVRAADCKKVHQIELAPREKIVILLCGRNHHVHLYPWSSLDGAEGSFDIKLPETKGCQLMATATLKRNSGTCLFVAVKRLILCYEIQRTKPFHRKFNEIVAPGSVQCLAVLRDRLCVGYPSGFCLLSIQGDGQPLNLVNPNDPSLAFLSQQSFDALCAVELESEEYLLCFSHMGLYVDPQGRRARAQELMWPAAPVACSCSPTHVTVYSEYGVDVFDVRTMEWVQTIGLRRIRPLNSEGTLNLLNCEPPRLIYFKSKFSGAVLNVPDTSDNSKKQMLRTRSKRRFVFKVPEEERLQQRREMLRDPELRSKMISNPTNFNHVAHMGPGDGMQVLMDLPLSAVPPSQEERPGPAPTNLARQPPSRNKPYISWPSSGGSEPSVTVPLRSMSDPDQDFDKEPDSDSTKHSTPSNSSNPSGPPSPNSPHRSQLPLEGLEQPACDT
# Experimental: as §2, §3
# GSK3B = molecular target: T9, GSK3B (Homo sapiens, UniProt P49841); experiment: CETSA-MS, MDA-MB-231 cell lysates; assay type: binding; details: 2 μM and 20 μM
# T9 construct: endogenous in cells; host or cells: MDA-MB-231
# T9 sequence (P49841 whole entry): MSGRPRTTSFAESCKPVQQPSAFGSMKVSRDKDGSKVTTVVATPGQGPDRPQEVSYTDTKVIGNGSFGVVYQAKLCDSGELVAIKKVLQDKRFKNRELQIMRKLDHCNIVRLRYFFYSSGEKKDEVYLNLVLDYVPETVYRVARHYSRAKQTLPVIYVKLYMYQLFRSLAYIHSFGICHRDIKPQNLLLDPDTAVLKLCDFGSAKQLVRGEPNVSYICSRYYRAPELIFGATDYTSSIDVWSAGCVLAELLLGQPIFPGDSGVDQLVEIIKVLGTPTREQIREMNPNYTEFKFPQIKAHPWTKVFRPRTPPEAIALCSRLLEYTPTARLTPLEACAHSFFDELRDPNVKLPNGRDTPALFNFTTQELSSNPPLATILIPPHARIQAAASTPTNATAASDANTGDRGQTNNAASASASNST
# Experimental: as §2, §3
# ATAT1 = molecular target: T10, ATAT1 (Homo sapiens, UniProt Q5SQI0); experiment: CETSA-MS, MDA-MB-231 cell lysates; assay type: binding; details: 2 μM and 20 μM
# T10 construct: endogenous in cells; host or cells: MDA-MB-231
# T10 sequence (Q5SQI0 whole entry): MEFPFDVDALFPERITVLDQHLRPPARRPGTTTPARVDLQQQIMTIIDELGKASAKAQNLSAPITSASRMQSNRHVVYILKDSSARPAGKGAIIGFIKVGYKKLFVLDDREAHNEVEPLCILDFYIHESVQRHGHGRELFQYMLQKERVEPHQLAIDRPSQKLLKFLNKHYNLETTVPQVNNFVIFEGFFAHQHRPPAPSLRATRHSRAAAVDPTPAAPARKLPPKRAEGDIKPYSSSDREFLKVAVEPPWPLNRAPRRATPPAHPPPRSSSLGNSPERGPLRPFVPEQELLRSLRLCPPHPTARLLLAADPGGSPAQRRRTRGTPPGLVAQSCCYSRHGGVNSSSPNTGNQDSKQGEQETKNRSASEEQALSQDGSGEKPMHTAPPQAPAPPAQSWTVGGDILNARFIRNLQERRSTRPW
# Experimental: as §2, §3
# CDK5 = molecular target: T11, CDK5 (Homo sapiens, UniProt Q00535); experiment: CETSA-MS, MDA-MB-231 cell lysates; assay type: binding; details: 2 μM and 20 μM
# T11 construct: endogenous in cells; host or cells: MDA-MB-231
# T11 sequence (Q00535 whole entry): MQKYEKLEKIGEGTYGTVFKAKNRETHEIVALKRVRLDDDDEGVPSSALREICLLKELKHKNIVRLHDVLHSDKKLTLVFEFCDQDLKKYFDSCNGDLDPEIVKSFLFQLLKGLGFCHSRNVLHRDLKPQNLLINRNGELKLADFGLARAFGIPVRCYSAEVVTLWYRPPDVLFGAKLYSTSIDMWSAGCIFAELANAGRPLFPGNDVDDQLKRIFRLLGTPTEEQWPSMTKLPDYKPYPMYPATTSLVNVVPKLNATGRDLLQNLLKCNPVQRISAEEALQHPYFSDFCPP
# Experimental: as §2, §3
smiles,measurement,setting,value
"CN1CCN(c2ccc(Nc3ncc4cc(C#N)c(=O)n(C5CCCC5)c4n3)cc2)CC1 [Compound 1, 8-cyclopentyl-2-((4-(4-methylpiperazin-1-yl)phenyl)amino)-7-oxo-7,8-dihydropyrido[2,3-d]pyrimidine-6-carbonitrile]",BUB1,BUB1 in MDA-MB-468,↓
same,BUB1,BUB1 in MDA-MB-231,↓
same,cellular morphology (TEM),MDA-MB-231 cells,extensive vacuolization
same,Group (CETSA-MS thermal shift),LIMK1,Stabilization
same,Group (CETSA-MS thermal shift),CPQ,Stabilization
same,Group (CETSA-MS thermal shift),EPHA2,Stabilization
same,Group (CETSA-MS thermal shift),DGCR6,Destabilization
same,Group (CETSA-MS thermal shift),ZCRB1,Stabilization
same,Group (CETSA-MS thermal shift),GSK3A,Stabilization
same,Group (CETSA-MS thermal shift),BMP2K,Stabilization
same,Group (CETSA-MS thermal shift),BUB1,Stabilization
same,Group (CETSA-MS thermal shift),CDC42BPB,Destabilization
same,Group (CETSA-MS thermal shift),GSK3B,Stabilization
same,Group (CETSA-MS thermal shift),ATAT1,Stabilization
same,Group (CETSA-MS thermal shift),CDK5,Stabilization

# From patent US20260183295A1, “METHODS AND COMPOSITIONS FOR TREATING CANCER” (Onconova Therapeutics, Inc., priority 2022, published 2026)
